From ChEMBL document CHEMBL3414534, “Water-soluble isoindolo[2,1-a]quinoxalin-6-imines: in vitro antiproliferative activity and molecular mechanism(s) of action” (Eur J Med Chem, 2015)
Converted amounts (≈) assume the structure as drawn. “And” between values parts separate entries of the source, which are not always exact repeats. Equal values may be shown once. The source made the active and inactive calls. The rule behind the calls is not given here.

Legend:
[1] = Binding affinity to double stranded DNA (unknown origin) assessed as change in melting temperature at 5 uM at pH 7.4 by fluorescence melting assay
Homo sapiens [2] = organism: Homo sapiens; assay: Binding affinity to human telomeric DNA sequence assessed as change in melting temperature at 5 uM at pH 7.4 by fluorescence melting assay
[3] = Binding affinity to Pu24 DNA (unknown origin) assessed as change in melting temperature at 5 uM at pH 7.4 by fluorescence melting assay
[4] = Growth inhibition of human NCI60 cells; format: functional
[5] = Solubility in water at 25 degC sonicated for 10 mins by HPLC method; format: physicochemical
Tubulin (Homo sapiens) [6] = target: T1, Tubulin (Homo sapiens) (UniProt P68371+Q9H4B7+P0DPH7+P68366+Q13509+Q71U36+P04350+Q3ZCM7+P07437+P68363+Q9BQE3+Q6PEY2+Q13885+Q9BVA1+Q9BUF5); assay: Induction of tubulin polymerization in human U2OS cells at cytotoxic IC50 level after 72 hrs by Western blotting method; format: cell-based
U2OS [7] = assay: Induction of apoptosis in human U2OS cells assessed as increase in caspase-3 catalytic activity at cytotoxic IC50 level after 72 hrs; format: functional
[8] = target: T2, DNA topoisomerase 1 (Homo sapiens) (UniProt P11387); assay: Inhibition of human recombinant topoisomerase 1-dependent DNA cleavage using 751-bp BamHI-EcoRI fragment of SV40 DNA at 1 to 50 uM incubated for 30 mins by PAGE method
T2 sequence (whole entry): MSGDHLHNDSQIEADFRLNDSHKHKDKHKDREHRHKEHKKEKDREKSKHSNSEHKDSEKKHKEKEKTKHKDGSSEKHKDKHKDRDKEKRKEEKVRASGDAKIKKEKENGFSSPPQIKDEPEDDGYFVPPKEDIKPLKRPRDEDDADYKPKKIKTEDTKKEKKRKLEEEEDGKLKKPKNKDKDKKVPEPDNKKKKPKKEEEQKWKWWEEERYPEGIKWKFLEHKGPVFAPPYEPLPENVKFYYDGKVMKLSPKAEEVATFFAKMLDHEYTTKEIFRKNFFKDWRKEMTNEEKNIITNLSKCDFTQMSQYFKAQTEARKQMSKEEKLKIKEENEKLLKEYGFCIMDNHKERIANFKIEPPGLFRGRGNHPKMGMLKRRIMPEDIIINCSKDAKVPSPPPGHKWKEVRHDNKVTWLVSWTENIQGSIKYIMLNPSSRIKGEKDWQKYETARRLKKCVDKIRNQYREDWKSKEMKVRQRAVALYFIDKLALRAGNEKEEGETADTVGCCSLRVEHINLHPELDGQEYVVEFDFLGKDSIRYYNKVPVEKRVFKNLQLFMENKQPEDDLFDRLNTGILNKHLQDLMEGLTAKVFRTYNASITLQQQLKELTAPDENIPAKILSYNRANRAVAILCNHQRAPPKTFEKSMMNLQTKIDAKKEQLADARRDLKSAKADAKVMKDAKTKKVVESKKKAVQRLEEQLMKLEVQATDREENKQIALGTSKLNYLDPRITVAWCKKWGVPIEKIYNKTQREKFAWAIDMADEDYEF

U2OS [9] = assay: Induction of telomere architecture perturbations in human U2OS cells assessed as displacement of hPOT1 from telomeres at cytotoxic IC50 level after 12 hrs by chromatin immunoprecipitation method; format: functional
U2OS [10] = assay: Induction of telomere architecture perturbations in human U2OS cells assessed as displacement of TRF2 from telomeres at cytotoxic IC50 level after 24 hrs by chromatin immunoprecipitation method; format: functional
U2OS [11] = assay: Induction of telomere architecture perturbations in human U2OS cells assessed as displacement of hPOT1 from telomeres at cytotoxic IC50 level after 24 hrs by chromatin immunoprecipitation method; format: functional
U2OS [12] = assay: Induction of telomere architecture perturbations in human U2OS cells assessed as displacement of human DNA topoisomerase 1 from telomeres at cytotoxic IC50 level after 24 hrs by chromatin immunoprecipitation method; format: functional
U2OS [13] = assay: Induction of telomere architecture perturbations in human U2OS cells assessed as increase in DNA topoisomerase 1 binding to telomeric sequences at cytotoxic IC50 level after 12 hrs by chromatin immunoprecipitation method; format: functional
Tubulin (Homo sapiens) [14] = target: T1, Tubulin (Homo sapiens); assay: Inhibition of tubulin polymerization in human U2OS cells at cytotoxic IC50 level after 72 hrs by Western blotting method; format: cell-based
U2OS [15] = assay: Growth inhibition of human U2OS cells after 72 hrs by coulter counter method; format: functional, cell-based
U2OS [16] = assay: Induction of telomere architecture perturbations in human U2OS cells assessed as displacement of hPOT1 from telomeres at cytotoxic IC50 level after 72 hrs by chromatin immunoprecipitation method; format: functional, cell-based
Calf thymus DNA = assay: Binding affinity to calf thymus double stranded DNA assessed as induction of modification of dichroic signal by CD spectroscopy; format: nucleic-acid assay; conditions: Bos taurus
U2OS [17] = assay: Induction of cell cycle arrest in human U2OS cells assessed as accumulation at G2/M phase at cytotoxic IC50 level by propidium iodide staining based based cytofluorimetry; format: functional; conditions: TDE = time-dependent effect
U2OS [18] = assay: Induction of cell cycle arrest in human U2OS cells assessed as increase in accumulation at subG1 phase at cytotoxic IC50 level by propidium iodide staining based based cytofluorimetry; format: functional; conditions: TDE = time-dependent effect
[19] = target: T2, DNA topoisomerase 1 (Homo sapiens); conditions: 50 uM
Description: Inhibition of human recombinant topoisomerase 1-dependent DNA cleavage using 751-bp BamHI-EcoRI fragment of SV40 DNA at 50 uM incubated for 30 mins by PAGE method

Homo sapiens [20] = organism: Homo sapiens; assay: Binding affinity to human telomeric DNA sequence Tel22 assessed as induction of modification of dichroic signal at 0 to 16 uM at pH 7.4 by CD spectroscopy

| Structure (SMILES) | ΔTm [1] | ΔTm (Homo sapiens [2]) | ΔTm [3] | solubility at 10 min [5] | GI50 ([4]; Homo sapiens, NCI60) | also measured |
| --- | --- | --- | --- | --- | --- | --- |
| Cc1cc2[nH]c(=N)c3c4ccccc4cn3c2cc1C | 0.3 °C | 3.1 °C | 1.9 °C |  |  |  |
| Cc1cc2cn3c4ccc(O)cc4[nH]c(=N)c3c2cc1C [listing 1 of 2 here] | 0.2 °C and 0.1 °C | 3.6 °C and 2.5 °C | 1.9 °C and 1.1 °C |  |  |  |
| CC(=O)O.Cc1cc2cn3c4ccc(O)cc4[nH]c(=N)c3c2cc1C |  |  |  | 9.8 mM |  | GI50 [4]: < 5.25 µM |
| CC(=O)O[C@H]1C(=O)[C@@]2(C)[C@H]([C@H](OC(=O)c3ccccc3)[C@]3(O)C[C@H](OC(=O)[C@H](O)[C@@H](NC(=O)c4ccccc4)c4ccccc4)C(C)=C1C3(C)C)[C@]1(OC(C)=O)CO[C@@H]1C[C@@H]2O |  |  |  |  |  | Activity (Tubulin (Homo sapiens) [6]): Active; Activity (U2OS [7]): Active |
| N=c1[nH]c2cc(O)ccc2n2cc3c(F)cccc3c12 [listing 1 of 2 here] | 0 °C | 1 °C and 0.8 °C | 2 °C and 1 °C |  |  | inhibition of DNA cleavage (qualitative) [8]: Dose-dependent effect |
| CC(=O)O.COc1cc2cn3c4ccc(O)cc4[nH]c(=N)c3c2cc1OC |  |  |  | 14 mM |  | Activity (U2OS [9]): -63%; Activity (U2OS [10]): -66%; fold change (FC) (U2OS [7]): 17; Activity (U2OS [11]): -31%; inhibition (INH) (U2OS [12]): 57%; GI50 [4]: < 3.31 µM; Activity (U2OS [13]): 77% |
| N=c1[nH]c2cc(Cl)c(Cl)cc2n2cc3ccccc3c12 | 0 °C | 0.3 °C | 1.1 °C |  |  |  |
| COc1ccc(OC)c2c1[nH]c(=N)c1c3ccccc3cn21 | 0.3 °C and 0.7 °C | 4.3 °C and 4.4 °C | 2.6 °C and 2.2 °C | 12.7 mM (≈ 3730 µg/mL) | 2.29 µM |  |
| N=c1[nH]c2ccccc2n2cc3ccccc3c12 | 0.3 °C | 1.1 °C | 1.5 °C |  |  |  |
| CC(=O)O.N=c1[nH]c2cc(O)ccc2n2cc3c(F)cccc3c12 |  |  |  | 12.7 mM |  | GI50 [4]: 6.31 µM |
| N=c1[nH]c2cc(O)ccc2n2cc3c(F)cccc3c12 [listing 2 of 2 here] |  |  |  | 23 mM (≈ 6150 µg/mL) |  | GI50 [4]: 31.6 µM |
| Cc1cc2cn3c4ccc(O)cc4[nH]c(=N)c3c2cc1C [listing 2 of 2 here] |  |  |  | 14.1 mM (≈ 3910 µg/mL) |  | GI50 [4]: < 1.45 µM |
| Cc1cccc2c1[nH]c(=N)c1c3ccccc3cn21 | 0.2 °C | 1.8 °C | 1.5 °C |  |  |  |
| CCc1c2c(nc3ccc(O)cc13)-c1cc3c(c(=O)n1C2)COC(=O)[C@]3(O)CC |  |  |  |  |  | inhibition [19]: Active |
| CCC1=C[C@@H]2CN(C1)Cc1c([nH]c3ccccc13)[C@@](C(=O)OC)(c1cc3c(cc1OC)N(C)[C@H]1[C@@](O)(C(=O)OC)[C@H](OC(C)=O)[C@]4(CC)C=CCN5CC[C@]31[C@@H]54)C2 |  |  |  |  |  | tubulin polymerization inhibition (active/inactive) (Tubulin (Homo sapiens) [14]): Active; Activity (U2OS [7]): Active |

Second part, led by results:

| ΔTm [1] | ΔTm (Homo sapiens [2]) | ΔTm [3] | solubility at 10 min [5] | Structure (SMILES) | GI50 ([4]; Homo sapiens, NCI60) | also measured |
| --- | --- | --- | --- | --- | --- | --- |
| 0.2 °C | 1.8 °C | 2.1 °C | 14.4 mM (≈ 4050 µg/mL) | COc1ccc2c(c1)[nH]c(=N)c1c3cccc(F)c3cn21 | 10.7 µM |  |
| 0.2 °C | 1.4 °C | 2 °C |  | COc1ccc2c(c1)[nH]c(=N)c1c3ccccc3cn21 |  |  |
|  |  |  | 13.2 mM (≈ 3870 µg/mL) | COc1ccc2c(c1)[nH]c(=N)c1c3cc(OC)ccc3cn21 | < 1.05 µM |  |
| 0 °C and 0.1 °C | 5 °C and 3.1 °C | 4.1 °C and 2.4 °C |  | COc1ccc2c(c1)[nH]c(=N)c1c3cc(OC)c(OC)cc3cn21 [listing 1 of 2 here] |  |  |
|  |  |  | 14.4 mM (≈ 4660 µg/mL) | COc1ccc2c(c1)[nH]c(=N)c1c3cc(OC)c(OC)cc3cn21 [listing 2 of 2 here] | > 15.5 µM |  |
|  |  |  | 10.9 mM | CC(=O)O.COc1ccc2c(c1)cn1c3ccc(O)cc3[nH]c(=N)c21 |  | GI50 [4]: < 8.32 µM |
|  |  |  | 21.9 mM (≈ 6120 µg/mL) | COc1ccc2c(c1)cn1c3ccc(O)cc3[nH]c(=N)c21 [listing 1 of 2 here] | 11 µM |  |
| 0.2 °C | 1.9 °C | 0.2 °C | 22.4 mM (≈ 6260 µg/mL) | COc1ccc2cn3c4ccc(O)cc4[nH]c(=N)c3c2c1 | 12.3 µM |  |
| 0 °C | 1.2 °C | 1.1 °C | 13 mM (≈ 3810 µg/mL) | COc1ccc2c(c1)cn1c3ccc(OC)cc3[nH]c(=N)c21 | < 1.2 µM | tubulin polymerization inhibition (active/inactive) (Tubulin (Homo sapiens) [14]): Active; Activity (U2OS [10]): -67%; growth inhibition (GI) (U2OS [15]): Active; fold change (FC) (U2OS [7]): 13; Activity (U2OS [16]): inactive; Activity (Calf thymus DNA): inactive; inhibition (INH) (U2OS [12]): 57%; inhibition of DNA cleavage (qualitative) [8]: Dose-dependent effect; Activity (U2OS [17]): tde; Activity (U2OS [18]): tde |
| 0.1 °C and 0 °C | 2.6 °C and 1.4 °C | 2.1 °C | 7.8 mM (≈ 2270 µg/mL) | COc1ccc2c(c1)[nH]c(=N)c1c3cc(C)c(C)cc3cn21 | < 3.8 µM |  |
| 0.1 °C and 0.7 °C | 4.4 °C and 4.3 °C | 1.9 °C and 2.9 °C |  | COc1ccc2c(c1)cn1c3ccc(O)cc3[nH]c(=N)c21 [listing 2 of 2 here] |  |  |
|  |  |  | 3.4 mM (≈ 899 µg/mL) | COc1ccc2c(c1)[nH]c(=O)c1c3ccccc3cn21 |  |  |
| 0.1 °C and 0 °C | 1.5 °C and 2 °C | 1.1 °C and 2.3 °C | 13.8 mM (≈ 3630 µg/mL) | COc1ccc2[nH]c(=N)c3c4ccccc4cn3c2c1 | 1.55 µM |  |
| 0.3 °C and 0.2 °C | 5.9 °C and 6.2 °C | 3.4 °C and 2.4 °C |  | COc1cc2cn3c4ccc(O)cc4[nH]c(=N)c3c2cc1OC |  | tubulin polymerization inhibition (active/inactive) (Tubulin (Homo sapiens) [14]): Active; growth inhibition (GI) (U2OS [15]): Active; Activity (Homo sapiens [20]): Active; Activity (U2OS [11]): inactive; Activity (Calf thymus DNA): Active; inhibition of DNA cleavage (qualitative) [8]: Active; Activity (U2OS [17]): tde; Activity (U2OS [18]): tde |
|  |  |  | 7.2 mM | CC(=O)O.COc1ccc2c(c1)[nH]c(=N)c1c3cc(OC)c(OC)cc3cn21 |  | GI50 [4]: < 9.55 µM |
